The values that follow come from publication PMC11855086, “Synthesis, Antimicrobial Activity, and Tyrosinase Inhibition by Multifunctional 3,4-Dihydroxy-Phenyl Peptidomimetics” (International Journal of Molecular Sciences, 2025).

Data set [1] concerns the target T1, mushroom tyrosinase (mTYR) (Agaricus bisporus, UniProt C7FF04).
T1 construct: purchased Sigma-Aldrich (Poznan, Poland); host or cells: Agaricus bisporus (extracted natural enzyme)
Nature of the data set: Tyrosinase assay with L-DOPA as substrate (absorbance at 475 nm). Format: biochemical. The settings on record: 100 µM compound. An excerpt:
Tyrosinase (Tyr) extracted from Agaricus bisporus (mushroom tyrosinase, mTYR) is commonly used as a model enzyme for human Tyr due to its high purity, stability, and commercial availability. It is frequently used in the selection of TYR inhibitors. Following established literature protocols, L-tyrosine and L-DOPA, which serve as substrates for monophenol and diphenol oxidation, respectively, were used to assess the tyrosinase inhibitory activity of synthesized target compounds [21].
Tyrosinase (Tyr) activity was measured using L-DOPA as substrate and phosphate buffer solution (PBS) as blank control, following the method described by Min He et al. (2022) with an ultraviolet spectrophotometer (Carry-300, Agilent Life Sciences and Chemical Analysis, Santa Clara, CA, USA). […] Before the experiment, 2.9 mL of PBS and 0.1 mL of DMSO were used to account for the influence of the background solvent. The inhibitor solution (100 µL), substrate solution (2.8 mL), and Tyr solution (100 µL) were then added to a quartz colorimetric cuvette. After a one-minute mixing period, the absorption spectra of the mixture were continuously recorded at 475 nm using the UV spectrophotometer (Carry-300) for 5 min over a period of every 30 s. The tyrosinase inhibition rate was calculated as follows:Relative enzyme activity (%) = (A1 − A2)/A1 × 100
A1 = Absorbance of L-DOPA and inhibitor.
A2 = Absorbance of L-DOPA, inhibitor, and tyrosinase.

The test system of data set [2] is E. coli K12 (ATCC 25404). Briefly: MIC and MBC, microtiter plate technique. The format is cell-based. Conditions: Escherichia coli; for MBC: ATCC25404; for MIC: ATCC25404, 24 h.
The test system of data set [3] is E. coli R2 (ATCC 39544). Briefly: MIC and MBC, microtiter plate technique. Format: cell-based. Conditions: Escherichia coli; for MBC: ATCC39544; for MIC: ATCC39544, 24 h.
Data set [4] concerns E. coli R3 (ATCC 11775). Nature of the data set: MIC and MBC, microtiter plate technique. The settings on record: Escherichia coli; for MIC: ATCC11775, 24 h, resazurin; for MBC: ATCC11775, TTC. Format: cell-based. In general terms: The colour change of resazurin is a common sign of viable cells or microbes.
For data set [5], the system named is E. coli R4 (ATCC 39543). Nature of the data set: MIC and MBC, microtiter plate technique. The format is cell-based. The settings on record: Escherichia coli; for MBC: ATCC39543; for MIC: ATCC39543, 24 h.
Data set [6] deals with A. baumannii (ATCC 17978). Briefly: MIC and MBC, microtiter plate technique. Format: cell-based. The settings on record: ATCC17978, Acinetobacter baumannii; for MIC: 24 h, resazurin; for MBC: TTC.
In data set [7] the test system is P. aeruginosa (ATCC 15442). Nature of the data set: MIC and MBC, microtiter plate technique. Format: cell-based. Conditions: ATCC15442, Pseudomonas aeruginosa; for MIC: 24 h, resazurin; for MBC: TTC.
Data set [8] deals with E. cloacae (ATCC 49141). Nature of the data set: MIC and MBC, microtiter plate technique. Format: cell-based. The settings on record: ATCC49141, Enterobacter cloacae; for MIC: 24 h, resazurin; for MBC: TTC.
The subject of data set [9] is S. aureus (ATCC 23235). Briefly: microbe, parasite or virus in culture. The format is cell-based. The settings on record: Staphylococcus aureus; for MBC: ATCC23235; for MIC: ATCC23235, 24 h.
Data set [10] deals with T1, mushroom tyrosinase (mTYR). Set-up: method as in earlier work. The settings on record: reported value; cited from earlier work.
The subject of data set [11] is E. coli, A. baumannii, P. aeruginosa, E. cloacae, and S. aureus. Nature of the data set: MIC and MBC over all model bacterial strains (summary statements). Format: cell-based. Conditions: Gram-positive and Gram-negative bacteria.
Data set [12] in a line: MTT cytotoxicity assay. The settings on record: mouse, BALB/c3T3 mouse embryonic fibroblast cells; 24 h of incubation; (±0.14); read-out: half maximum inhibitory concentration (IC50), cytotoxicity. Format: cell-based. How it is done:
Following the completion of MIC and MBC assays on the analyzed bacterial strains, and subsequent treatment with Fpg protein modified by peptidomimetics along with selected antibiotics, a further MTT assay was conducted to evaluate the cytotoxicity of the compounds employing the BALB/c3T3 mouse embryonic fibroblast cell line (Figure 10).
BALB/c3T3 mouse embryonic fibroblast cells were exposed to peptidomimetics across concentrations ranging from 0.5 µM to 3.5 µM and incubated for a duration of 24 h. […] The highest concentrations (2.5 µM and 3.5 µM) inhibited cell viability, which was reduced to 20.2% and 1.0%, respectively (Figure 10 and Figure S40 in the Supplementary Materials).
The cytotoxic effects of aldehyde 1 and peptidomimetics 5a–r on BALB/c3T3 mouse fibroblast cells were assessed utilizing the MTT assay following a 24 h incubation period across five different concentrations (0.5, 1.0, 1.5, 2.5, and 3.5 µM). The MTT assay is predicated upon the capacity of mitochondrial dehydrogenase enzymes to convert the water-soluble tetrazolium salt, 3-([…])-2,5-diphenyltetrazolium bromide (MTT), into an insoluble formazan product, manifesting as dark blue crystals. These formazan crystals are then dissolved in DMSO or isopropanol, forming a colored solution whose intensity is measured spectrophotometrically within the wavelength range of 492–570 nm. The amount of MTT reduced corresponds to the oxidative activity of the mitochondria, which is directly proportional to the number of metabolically active cells in the population under defined experimental conditions. The MTT assay can also be used to assess cell viability in non-dividing metabolically active cells. It is one of the most widely used methods to assess cytotoxic activity and is recommended by international standards organizations as a reference method.
In general terms: Tetrazolium assays rely on reduction of a dye to a coloured formazan, in cell work by metabolically active cells.

Values after ≈ are worked out from the molar mass of the structure shown.

T1 sequence (C7FF04 1-392 limits assumed): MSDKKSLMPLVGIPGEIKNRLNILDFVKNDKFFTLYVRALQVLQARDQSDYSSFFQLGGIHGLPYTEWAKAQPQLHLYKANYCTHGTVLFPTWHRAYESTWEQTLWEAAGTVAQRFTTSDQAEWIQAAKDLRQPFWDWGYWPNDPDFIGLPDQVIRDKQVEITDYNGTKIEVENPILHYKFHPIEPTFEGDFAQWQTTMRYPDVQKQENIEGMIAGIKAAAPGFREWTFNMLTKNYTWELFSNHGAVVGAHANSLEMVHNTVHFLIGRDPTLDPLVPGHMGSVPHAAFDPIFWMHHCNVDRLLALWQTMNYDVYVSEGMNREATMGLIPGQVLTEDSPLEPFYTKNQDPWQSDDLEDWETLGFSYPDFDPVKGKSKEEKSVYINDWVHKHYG

On to `O=Cc1ccc(O)c(O)c1` [Compound 1, 3,4-dihydroxybenzaldehyde, reference compound], for which the inhibition (commonly the change of the read-out against control, counted positive when it falls) at 100 µM in [1] came out at 15%. Besides, the MBC in data set [2] is 1.82 µM (≈ 0.251 µg/mL); in data set [3] it was 2.6 µM (≈ 0.359 µg/mL); in data set [4], 2.96 µM (≈ 0.409 µg/mL); in data set [5] it was 3.58 µM (≈ 0.494 µg/mL); in data set [6] it was 3.55 µM (≈ 0.49 µg/mL); in [7] it was 3.33 µM (≈ 0.46 µg/mL). The MBC in data set [8] was determined as 3.04 µM (≈ 0.42 µg/mL); in [9], 3.33 µM (≈ 0.46 µg/mL). Besides, the MIC in data set [2] stood at 1.39 µM (≈ 0.192 µg/mL); in [3] it was 2.46 µM (≈ 0.34 µg/mL); in data set [4], 2.85 µM (≈ 0.394 µg/mL); in data set [5], 3.57 µM (≈ 0.493 µg/mL); in data set [6] it was 2.82 µM (≈ 0.39 µg/mL); in data set [7], 3 µM (≈ 0.414 µg/mL). Further, the MIC came to 2.75 µM (≈ 0.38 µg/mL) in data set [8] and 2.67 µM (≈ 0.369 µg/mL) in data set [9]. For the same molecule, in [10], the IC50 was 250 µM.
For `COc1ccc(CN(C(=O)Cc2ccccc2)C(C(=O)NCc2ccccc2)c2ccc(O)c(O)c2)cc1` (stereo not shown) [Compound 5a, N-benzyl-2-(3,4-dihydroxyphenyl)-2-(N-(4-methoxybenzyl)-2-phenylacetamido)-acetamide], the inhibition at 100 µM in data set [1] is below 10%. For the same molecule, the MBC in [2] is 0.32 µM (≈ 0.163 µg/mL); in data set [3] it was 0.62 µM (≈ 0.317 µg/mL); in data set [4], 0.84 µM (≈ 0.429 µg/mL); in data set [5], 1.15 µM (≈ 0.587 µg/mL); in data set [6], 0.68 µM (≈ 0.347 µg/mL); in data set [7], 0.66 µM (≈ 0.337 µg/mL). Also, the MBC in data set [8] was 0.62 µM (≈ 0.317 µg/mL); in [9], 0.68 µM (≈ 0.347 µg/mL). In addition, the MIC in [2] is 0.3 µM (≈ 0.153 µg/mL); in [3], 0.59 µM (≈ 0.301 µg/mL); in data set [4] it was 0.66 µM (≈ 0.337 µg/mL); in data set [5], 0.88 µM (≈ 0.449 µg/mL); in data set [6], 0.63 µM (≈ 0.322 µg/mL); in [7], 0.62 µM (≈ 0.317 µg/mL). For the same molecule, the MIC was 0.58 µM (≈ 0.296 µg/mL) in data set [8] and 0.65 µM (≈ 0.332 µg/mL) in data set [9]. In addition, the “antibacterial spectrum” value in [11] was “broad-spectrum activity”. Besides, the IC50 at 24 h in [12] came out at 1.61 µM.
